# Reference: patent US6821962B2, “Quinoline and quinoxaline compounds which inhibit platelet-derived growth factor and /or p56lck tyrosine kinases” (Aventis Pharmaceuticals Inc., priority 1997, dated 2004)
# Counter-ions that a name gives are not always drawn.
# Test system: not given
# Conditions: not given
row,SMILES,melting point
1,CC(C)Oc1ccc2nc(Nc3ccccc3)cnc2c1.Cl,205 to 210 °C (dec.)
2,"COc1cc2ncc(N[C@@H]3C[C@H]4CC[C@@H]3C4)nc2cc1OC [Example 22, (1R,2R,4S)-(+)-Bicyclo[2.2.1]hept-2-yl-(6,7-dimethoxyquinoxalin-2-yl)-amine]",184 to 186 °C
3,"Oc1ccc2nc(Nc3ccccc3)cnc2c1 [Example 8, 2-Anilino-6-quinoxalinol]",211 to 213 °C
4,"COc1cc2ncc(CNC3CCCCC3)nc2cc1OC (as salt: HCl) [Example 11, Cyclohexyl-(6,7-dimethoxyquinoxalin-2-ylmethyl)-amine]",185 to 190 °C (dec.)
5,"COc1cc2ncc(NC3CCCCC3)nc2cc1OC [Example 3, 2-cyclohexylamino-6,7-dimethoxyquinoxaline]",188 to 189.5 °C
6,"COc1cc2ncc(OC3CCCCC3)nc2cc1OC1CCCCC1 [Example 10, 2,7-Bis-cyclohexyloxy-6-methoxy-quinoxaline]",75 to 78 °C
7,"c1ccc(Nc2cnc3cc(O[C@@H]4CCOC4)ccc3n2)cc1 [Example 9, Phenyl-[6-(tetrahydrofuran-3-(R)-yl-oxy)quinoxalin-2-yl]amine]",173 to 175 °C
8,"COc1cc2ncc(NC3CCCCC3)nc2cc1N1CCOCC1 [Example 14, Cyclohexyl-(6-methoxy-7-morpholin-4-yl-quinoxalin-2-yl)-amine]",194 to 196 °C
9,"COc1cc2cc(NCC(C)(C)CO)cnc2cc1OC [Example 13, 3-(6,7-Dimethoxyquinolin-3-yl-amino)-2,2-dimethyl-propan-1-ol]",170 to 173.5 °C

# Target: Lck (Homo sapiens, UniProt P06239)
# Sequence (P06239 whole entry, species assumed): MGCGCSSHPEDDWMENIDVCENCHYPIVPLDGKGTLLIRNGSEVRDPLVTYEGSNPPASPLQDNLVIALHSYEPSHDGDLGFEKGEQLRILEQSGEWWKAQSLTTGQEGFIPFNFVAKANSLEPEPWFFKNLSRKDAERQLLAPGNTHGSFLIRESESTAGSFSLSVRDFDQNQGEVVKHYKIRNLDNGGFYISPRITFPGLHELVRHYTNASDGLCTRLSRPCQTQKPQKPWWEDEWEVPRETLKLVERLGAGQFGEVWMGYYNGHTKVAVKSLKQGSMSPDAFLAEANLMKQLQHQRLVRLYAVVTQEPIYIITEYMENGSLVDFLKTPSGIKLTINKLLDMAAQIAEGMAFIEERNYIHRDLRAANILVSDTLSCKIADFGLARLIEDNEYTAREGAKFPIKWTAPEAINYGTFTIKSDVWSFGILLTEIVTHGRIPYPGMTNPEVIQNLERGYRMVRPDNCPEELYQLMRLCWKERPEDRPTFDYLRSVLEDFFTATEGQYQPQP
# Conditions: background, literature report; cited from earlier work
row,SMILES,potency against Lck (in words)
1,Cc1ccc(-c2nn(C(C)(C)C)c3ncnc(N)c23)cc1 [PP1],low nanomolar

# Target: Fyn (Homo sapiens, UniProt P06241)
# Sequence (P06241 whole entry, species assumed): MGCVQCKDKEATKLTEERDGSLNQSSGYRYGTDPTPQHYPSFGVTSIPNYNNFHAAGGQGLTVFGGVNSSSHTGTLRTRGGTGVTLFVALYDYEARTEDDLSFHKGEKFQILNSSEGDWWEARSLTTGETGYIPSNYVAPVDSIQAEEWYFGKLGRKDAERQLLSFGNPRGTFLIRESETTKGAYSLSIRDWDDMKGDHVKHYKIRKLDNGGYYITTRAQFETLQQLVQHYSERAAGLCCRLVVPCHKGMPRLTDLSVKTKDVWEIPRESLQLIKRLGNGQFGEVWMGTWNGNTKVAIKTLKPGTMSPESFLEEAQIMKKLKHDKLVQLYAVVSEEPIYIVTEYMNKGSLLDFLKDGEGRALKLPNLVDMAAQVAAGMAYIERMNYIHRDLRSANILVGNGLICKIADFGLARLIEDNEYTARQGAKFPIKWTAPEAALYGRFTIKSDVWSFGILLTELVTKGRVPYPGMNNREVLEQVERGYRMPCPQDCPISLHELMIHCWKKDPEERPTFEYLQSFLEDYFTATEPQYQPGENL
# Conditions: background, literature report (Hanke et al.); cited from earlier work
row,SMILES,potency against Fyn (in words)
1,Cc1ccc(-c2nn(C(C)(C)C)c3ncnc(N)c23)cc1 [PP1],low nanomolar
